According to patent US20050137130A1, “Medical treatment” (priority 2001, published 2005):

Columns and labels:
Type in all cases: cell-based
[1] = test system: Notch signalling from Delta (A20-Delta cells, mouse Delta1); test: Antagonism of A20-Delta Notch signalling (N27#11 luciferase reporter); settings: A20-Delta cells 1×10^5 per well; IgG4 as control
Excerpt: (§1) The IVS, IRES, Neo and pA elements were removed from plasmid pIRESneo2 (Clontech, USA) and inserted into a pUC cloning vector downstream of a chicken beta-actin promoter (eg see GenBank Accession No E02199). Mouse Delta-1 cDNA (eg see GenBank Accession No NM_007865) was inserted between the actin promoter and IVS elements and a sequence with multiple stop codons in all three reading frames was inserted between the Delta and IVS elements.
(§2) The resulting construct was transfected into A20 cells using electroporation and G418 to provide A20 cells expressing mouse Delta1 on their surfaces (A20-Delta).
(§3) The procedure of Example was repeated using A20-Delta or A20-Jagged cells (1×10^5 per well) in place of CHO-Delta cells. IgG4 was used as a control.

[2] = test system: Notch signalling from Jagged1 (A20-Jagged cells, human Jagged1); test: Antagonism of A20-Jagged Notch signalling (N27#11 luciferase reporter); settings: A20-Jagged cells 1×10^5 per well; IgG4 as control
Excerpt: as §1, §2
Corresponding cells (A20-Jagged) were prepared using human Jagged1 cDNA (see e.g. GenBank Accession No U61276).
as §3

Mouse CD4+T-cells = test: ELISA assay for Notch signalling modulator activity in mouse CD4+ cells (IL-10, plate-bound hDelta1-IgG4Fc); settings: all concentrations tested, added at start of culture, day 3
Description: Spleens were removed from female Balb/c mice 8-10 weeks old and passed through a […] cell strainer into 20 ml R10F medium (R10F-RPMI 1640 media (Gibco Cat No 22409) plus 2 mM L-glutamine, 50 μg/ml Penicillin, 50 μg/ml Streptomycin, 5×10^−5 M β-mercapto-ethanol in 10% fetal calf serum). The cell suspension was spun (1150 rpm 5 min) and the media removed.
The cells were incubated for 4 minutes with 5 ml ACK lysis buffer (0.15M NH4Cl, […], O. 1 mM Na2EDTA in double distilled water) per spleen (to lyse red blood cells). The cells were then washed once with R10F medium and counted. CD4+ cells were purified from the suspensions by positive selection on a Magnetic Associated Cell Sorter (MACS) column (Miltenyi Biotec, Bisley, UK: Cat No 130-042-401) using CD4 (L3T4) beads (Miltenyi Biotec Cat No 130-049-201), according to the manufacturer's directions. […]
Mouse CD4+T-cells (prepared as above) were cultured at 2×10^5/well on anti-CD3 coated plates with or without plate-bound hDelta1-IgG4Fc fusion protein (prepared as described above) and soluble anti-CD28. […] Soluble hDelta1-IgG4Fc fusion protein was added into culture at the start at the concentrations shown and IL-10 was measured in supernatants on day 3 by ELISA using antibody pairs from R & D Systems (Abingdon, UK).

## hDelta1-IgG4Fc: fusion protein comprising the extracellular domain of human Delta1 fused to the Fc domain of human IgG4 (SEQ ID NO: 5)
[1]
  inhibition of Notch signalling from Delta: able to inhbit Notch signalling
[2]
  inhibition of Notch signalling from Jagged1: able to inhbit Notch signalling
Mouse CD4+T-cells
  effect of soluble protein on increased IL-10 release induced by plate-bound hDelta1-IgG4Fc: substantially reversed
